We go through 11 molecules from patent publication US4385055A, “2-Acetyl-and 2-propionylpyridine thiosemicarbazones as antimalarials” (The United States of America as represented by the …, priority 1981, dated 1983).

Holding throughout (assay type): cell-based
One experiment concerns Neisseria meningitidis. The experiment can be described thus: Macro broth dilution MIC, Neisseria meningitidis isolates (Test 2). The following applies: for MIC: Neisseria meningitidis, 24 h, read-out: Minimum Inhibitory Concentration. The method, then:
Compounds were tested against five isolates of Neisseria meningitidis. The bacterial isolates were provided by the Department of Bacterial Diseases of the Walter Reed Army Institute of Research. The test procedure used was the macro broth dilution method in duplicate outlined by J. C. Sherris on pages 414-415 (loc. cit.). The test compounds and controls were prepared as in Test 1 above. Ampicillin and penicillin standards were initially diluted as described by J. C. Sherris on pages 411-412 (loc. cit.) followed by dilution with Mueller-Hinton broth. The tubes were incubated at 37° C. under 5-10% carbon dioxide.
(In broth dilution the organism is exposed to a series of concentrations in liquid medium.)

In a further experiment the test system is Neisseria gonorrhoeae. As to the kind of experiment: Agar dilution MIC, Neisseria gonorrhoeae isolates (Test 3). The following applies: 24 h. On the procedure: Compounds were tested against six Neisseria gonorrhoeae isolates. The bacteria used were provided by the Department of Bacterial Diseases of the Walter Reed Army Institute of Research. The test procedure used was the agar dilution method in duplicate as outlined by J. C. Sherris on pages 411-412 (loc. cit.). GC Medium (Difco) with a 2% defined supplement added as described by D. S. Kellogg et al. [J. Bact. 85:1274-1279 (1963)] was used as the media. The compounds were dissolved in DMSO (1.0 mg/mL), diluted with GC broth (GC Medium without agar) to the appropriate concentration, and added to the GC Medium at 55°-56° C. The latter was then poured and allowed to solidify. A penicillin standard was also prepared with initial dilutions as described by J. C. Sherris followed by dilutions with GC broth and addition to the GC Medium at 55°-56° C. as above. The inoculum was 1:200 GC broth dilution of a suspension of colony isolates after the suspension was adjusted visually to the turbidity standard described by J. M. Matsen and A. L. Barr on page 422 in "Manual of Clinical Microbiology," 2nd ed., E. Lennette, E. H. Spaulding, and J. P. Truant, Ed. (American Society for Microbiology, Washington, D.C., 1974). The plates were inoculated with a replicator and incubated at 37° C. under 5-10% carbon dioxide.
On the technique in general: In agar dilution the substance is mixed into plates at graded concentrations.

The subject of another experiment is Mycobacterium smegmatis. As to the kind of experiment: MIC against Mycobacterium smegmatis strains (Test 4). The note with it: Mycolicibacterium smegmatis, read-out: Minimum Inhibitory Concentration. On the procedure: Compounds were tested against four strains of Mycobacterium smegmatis. The test procedure used was as mentioned by N. E. Morrison [Int. J. of Leprosy 39:34-43 (1971)]. The strain numbers refer to Mycobacterium smegmatis ATCC 607, a DDS-resistant daughter strain, a Rifampin-resistant daughter strain, and a Clofazimine-resistant daughter strain, respectively.

[1] abbreviates: Neisseria meningitidis isolate 7957, read after 24 hours.
[2] abbreviates: Neisseria meningitidis isolate 7990, read after 24 hours.
The mark [3] stands for this setting: Neisseria meningitidis isolate 8005, read after 24 hours.
Where [4] appears, read: Neisseria meningitidis isolate 8006, read after 24 hours.
Where [5] appears, read: Neisseria meningitidis isolate 8011, read after 24 hours.
Where [6] appears, read: Neisseria gonorrhoeae isolate 135, read after 24 hours, read-out: Minimum Inhibitory Concentration.
Setting [7] is: Neisseria gonorrhoeae isolate 161, read after 24 hours, read-out: Minimum Inhibitory Concentration.
Setting [8] is: Neisseria gonorrhoeae isolate 278, read after 24 hours, read-out: Minimum Inhibitory Concentration.
Setting [9] is: Neisseria gonorrhoeae isolate 455, read after 24 hours, read-out: Minimum Inhibitory Concentration.
Where [10] appears, read: Neisseria gonorrhoeae isolate 456, read after 24 hours, read-out: Minimum Inhibitory Concentration.
Setting [11] is: Neisseria gonorrhoeae isolate 602, read after 24 hours, read-out: Minimum Inhibitory Concentration.
Where [12] appears, read: ATCC607, Mycobacterium smegmatis strain I (ATCC 607).
Where [13] appears, read: Mycobacterium smegmatis strain IV (Clofazimine-resistant daughter strain).
Where [14] appears, read: Mycobacterium smegmatis strain II (DDS-resistant daughter strain).
The mark [15] stands for this setting: Mycobacterium smegmatis strain III (Rifampin-resistant daughter strain).

The structures appear in SMILES notation. Converted amounts (≈) assume the structure as drawn. Read-outs that look alike come from different tables or passages of the source.

As for `CC(=NNC(=S)N1CCN(c2ccccc2)CC1)c1ccccn1` [K, 1,4-Diaza-4-phenylcyclohexane-1-thiocarboxylic acid 2-[1-(2-pyridyl)ethylidene]hydrazide], the MIC is 0.062 µg/mL (≈ 0.183 µM) in the experiment with Neisseria meningitidis (setting [1]); 0.062 µg/mL (≈ 0.183 µM) in the experiment with Neisseria meningitidis (setting [2]); 1 µg/mL (≈ 2.95 µM) with Neisseria meningitidis (setting [3]); 0.062 µg/mL (≈ 0.183 µM) with Neisseria meningitidis (setting [4]); 0.125 µg/mL (≈ 0.368 µM) in the experiment on Neisseria meningitidis (setting [5]); 0.031 µg/mL (≈ 0.0913 µM) in the experiment on Neisseria gonorrhoeae (setting [6]). Moreover, the MIC in the experiment on Neisseria gonorrhoeae (setting [7]) is < 0.008 µg/mL; in the experiment with Neisseria gonorrhoeae (setting [8]), 0.031 µg/mL (≈ 0.0913 µM); in the experiment with Neisseria gonorrhoeae (setting [9]) it was 0.031 µg/mL (≈ 0.0913 µM); in the experiment on Neisseria gonorrhoeae (setting [10]), 0.016 µg/mL (≈ 0.0471 µM); in the experiment with Neisseria gonorrhoeae (setting [11]), 0.031 µg/mL (≈ 0.0913 µM).
Take `CC(C)/N=c1\cc2n(-c3ccc(Cl)cc3)c3ccccc3nc-2cc1Nc1ccc(Cl)cc1` [Clofazimine, reference compound]: the results for the MIC with Mycobacterium smegmatis (setting [12]) and in the experiment with Mycobacterium smegmatis (setting [13]) were 1.5 µg/mL (≈ 3.17 µM) and 20 µg/mL (≈ 42.2 µM), respectively.
Consider `CCC(=NNC(=S)N(C)C)c1ccccn1` [JJ, 2-Propionylpyridine 4,4-dimethyl-3-thiosemicarbazone], for which the MIC in the experiment with Neisseria gonorrhoeae (setting [6]) was 0.016 µg/mL (≈ 0.0677 µM); with Neisseria gonorrhoeae (setting [7]), 0.004 µg/mL (≈ 0.0169 µM); in the experiment on Neisseria gonorrhoeae (setting [8]), 0.016 µg/mL (≈ 0.0677 µM); with Neisseria gonorrhoeae (setting [9]), 0.008 µg/mL (≈ 0.0338 µM); with Neisseria gonorrhoeae (setting [10]) it was 0.008 µg/mL (≈ 0.0338 µM); with Neisseria gonorrhoeae (setting [11]) it was 0.008 µg/mL (≈ 0.0338 µM).
With `C=CCNC(=S)NN=C(C)c1ccccn1` [A, 2-Acetylpyridine 4-allyl-3-thiosemicarbazone], the MIC in the experiment with Mycobacterium smegmatis (setting [12]), with Mycobacterium smegmatis (setting [14]), in the experiment on Mycobacterium smegmatis (setting [15]) and in the experiment on Mycobacterium smegmatis (setting [13]) was < 1 µg/mL in each case.
Take `Nc1ccc(S(=O)(=O)c2ccc(N)cc2)cc1` [DDS, reference compound]: the MIC was determined as 2 µg/mL (≈ 8.05 µM) with Mycobacterium smegmatis (setting [12]) and 400 µg/mL (≈ 1610 µM) in the experiment with Mycobacterium smegmatis (setting [14]).
As for `CC(=NNC(=S)N1CCN(c2ccccn2)CC1)c1ccccn1.Cl.Cl` [W, 1,4-Diaza-4-(2-pyridyl)cyclohexane-1-thiocarboxylic acid 2-[1-(2-pyridyl)-ethylidene]hydrazide dihydrochloride], the MIC was 6 µg/mL in the experiment on Mycobacterium smegmatis (setting [12]), 10 µg/mL with Mycobacterium smegmatis (setting [14]), 5 µg/mL in the experiment on Mycobacterium smegmatis (setting [15]) and 6 µg/mL in the experiment with Mycobacterium smegmatis (setting [13]).
Turning to `CC(=NNC(=S)N1CCCCC1)c1ccccn1` [GG, Piperidine-1-thiocarboxylic acid 2-[1-(2-pyridyl)ethylidene]hydrazide], the MIC in the experiment on Neisseria gonorrhoeae (setting [6]) was 0.008 µg/mL (≈ 0.0305 µM); with Neisseria gonorrhoeae (setting [7]), 0.004 µg/mL (≈ 0.0152 µM); in the experiment with Neisseria gonorrhoeae (setting [8]), 0.008 µg/mL (≈ 0.0305 µM); in the experiment on Neisseria gonorrhoeae (setting [9]) it was 0.008 µg/mL (≈ 0.0305 µM); in the experiment with Neisseria gonorrhoeae (setting [10]), 0.008 µg/mL (≈ 0.0305 µM); in the experiment with Neisseria gonorrhoeae (setting [11]), 0.008 µg/mL (≈ 0.0305 µM).
For the molecule `CC(=NNC(=S)N1CCC1)c1ccccn1` [FF, Azetidine-1-thiocarboxylic acid 2-[1-(2-pyridyl)ethylidene]hydrazide], the MIC was 2 µg/mL (≈ 8.54 µM) in the experiment with Mycobacterium smegmatis (setting [12]), 2 µg/mL (≈ 8.54 µM) with Mycobacterium smegmatis (setting [14]), < 1 µg/mL with Mycobacterium smegmatis (setting [15]) and < 1 µg/mL with Mycobacterium smegmatis (setting [13]).
For `CC1(C)S[C@@H]2[C@H](NC(=O)Cc3ccccc3)C(=O)N2[C@H]1C(=O)O` [Penicillin, reference compound], the “Minimum Inhibitory Concentration” value in the experiment on Neisseria meningitidis (setting [2]), in the experiment with Neisseria meningitidis (setting [4]) and with Neisseria meningitidis (setting [5]) was 0.031 µg/mL each time. Moreover, the MIC in the experiment with Neisseria meningitidis was 0.031 µg/mL (≈ 0.0927 µM); in the experiment on Neisseria gonorrhoeae (read-out: Minimum Inhibitory Concentration, Neisseria gonorrhoeae isolate 135, read after 24 hours) it was 0.25 µg/mL (≈ 0.748 µM); in the experiment on Neisseria gonorrhoeae (read-out: Minimum Inhibitory Concentration, Neisseria gonorrhoeae isolate 161, read after 24 hours), 0.125 µg/mL (≈ 0.374 µM); in the experiment on Neisseria gonorrhoeae (read-out: Minimum Inhibitory Concentration, Neisseria gonorrhoeae isolate 278, read after 24 hours) it was < 0.062 µg/mL; in the experiment with Neisseria gonorrhoeae (read-out: Minimum Inhibitory Concentration, Neisseria gonorrhoeae isolate 455, read after 24 hours), 0.125 µg/mL (≈ 0.374 µM); in the experiment with Neisseria gonorrhoeae (read-out: Minimum Inhibitory Concentration, Neisseria gonorrhoeae isolate 456, read after 24 hours), > 16 µg/mL. Further, the MIC in the experiment with Neisseria gonorrhoeae (read-out: Minimum Inhibitory Concentration, Neisseria gonorrhoeae isolate 602, read after 24 hours) was > 16 µg/mL.
As to `CO[C@H]1/C=C/O[C@@]2(C)Oc3c(C)c(O)c4c(O)c(c(/C=N/N5CCN(C)CC5)c(O)c4c3C2=O)NC(=O)/C(C)=C\C=C\[C@H](C)[C@H](O)[C@@H](C)[C@@H](O)[C@@H](C)[C@H](OC(C)=O)[C@@H]1C` [Rifampin, reference compound], the MIC in the experiment on Mycobacterium smegmatis (setting [12]) came to 1 µg/mL (≈ 1.22 µM); in the experiment on Mycobacterium smegmatis (setting [15]) it was 250 µg/mL (≈ 304 µM).
In the case of `CC1(C)S[C@@H]2[C@H](NC(=O)[C@H](N)c3ccccc3)C(=O)N2[C@H]1C(=O)O` [Ampicillin, reference compound], the MIC was 0.008 µg/mL (≈ 0.0229 µM) in the experiment with Neisseria meningitidis (setting [1]); 0.008 µg/mL (≈ 0.0229 µM) in the experiment on Neisseria meningitidis (setting [2]); 0.008 µg/mL (≈ 0.0229 µM) in the experiment with Neisseria meningitidis (setting [3]); 0.016 µg/mL (≈ 0.0458 µM) with Neisseria meningitidis (setting [4]); 0.016 µg/mL (≈ 0.0458 µM) with Neisseria meningitidis (setting [5]).
